Data published in US20230075368A1, “IDENTIFICATION OF AN EGFR-BIN3 PATHWAY THAT ACTIVELY SUPPRESSES INVASION AND REDUCES TUMOR SIZE IN GLIOBLASTOMA” (The United States Govemment as represented by the …, priority 2020, published 2023).

Assays:
Format in all cases: cell-based, human
[1] = test system: Mayo PDX cells; assay: Matrigel invasion assay
Experimental: Invasion status of cells was tested with Matrigel Boyden chamber assays (Fisher). 1×10^5 cells were plated on BD BioCoat Matrigel invasion chambers. 24 hours after treatment with drugs, invaded cells were stained with the HEMA-3 kit (Fisher). Invaded cells were counted in 4-5 random fields.
An equal number of cells (5×10^4) were seeded on Matrigel coated inserts, and were untreated (control vehicle) or stimulated with 50 ng/ml EGF for 24 hours, cells invading to the other side of the membrane were counted and presented as percentage cell invasion. […] A similar invasion assay was conducted on GBM26 cells (FIG. 2D). […] Cells were transfected with EGFR or scrambled siRNA for 48 hours before the invasion assay. A similar invasion assay was performed on GBM6 (FIG. 2G). […] Cells were transiently transfected with empty or EGFR wildtype (EGFRwt) overexpressing vector, and invasion assay was performed after 48 hours after transfection. […] Cells were treated with or without 50 ng/ml EGF for 48 hours before the assay. The Western blot images are representative of three independent biological replicates. Actin served as loading control. Data are represented as mean±SEM from three independent experiments. *P<0.05, **P<0.01, n.s. not significant, unpaired two-tailed Student's t-test.
FIG. 3C and FIG. 3D show the results of a Matrigel invasion assay of EGFR siRNA knockdown in GBM12 and GBM6 in response to EGF. Cells were treated with EGFR or scrambled siRNA for 48 hours, transfected cells were seeded on Matrigel coated inserts and were treated with or without 50 ng/ml EGF for 24 hours. […] Cells were transiently transfected with EGFRvIII expression or empty vector, invasion assay was performed 48 hours after transfection. […] Western blot images are representative of three independent biological replicates. Actin served as a loading control. Data are represented as mean±SEM from three independent experiments. […], **P<0.01, ***P<0.001, n.s. not significant, unpaired two-tailed t-test.

[2] = test system: BIN3; assay: BIN3 expression by Western blot / real-time PCR
Experimental: Mayo PDX cells were serum starved overnight. Following treatment for specific time, cells were harvested and lysed. The human glioblastoma tissues were ground in liquid nitrogen and then were lysed. […] TGFα antibody was from R&D system.
Total RNA from cells was extracted by TRIzol Reagent (Ambion). […] The expression of each gene was normalized to GAPDH as a reference. The following primers were used.
Specifically, Western blot analysis of BIN3 in PDXs in response to EGF was performed (FIG. 4A). Cells were serum starved overnight and treated with 50 ng/ml EGF for 48 hours. BIN3 mRNA levels in EGF-treated PDXs were determined by real-time PCR (FIG. 7B). […] Cells were treated with BIN3 or scrambled siRNA for 48 hours, transfected cells were treated with or without 50 ng/ml EGF for 24 hours. Similar experiments were conducted in GBM6 and GBM22 (FIG. 7D and FIG. 7E). Referring to FIG. 7F, knockdown efficiency of BIN3 siRNA was analyzed by Western blotting. […] Cells were transiently transfected with vector expressing BIN3 for 48 hours followed by invasion assay. […] EGR1 mRNA levels in GBM12 and GBM6 after EGF treatment were determined by real-time PCR (RT-PCR) (FIG. 7I). […] A similar experiment was performed in GBM6 (FIG. 7L). […] A similar experiment was performed in GBM6 (FIG. 7N). Knockdown efficiency of EGR-1 siRNA was analyzed by Western blotting (FIG. 7O). The Western blot images are representative of three independent biological replicates. Actin served as loading control. Data are represented as mean±SEM from three independent experiments. * P<0.05, **P<0.01, unpaired two-tailed t-test.

[3] = test system: RhoA; assay: RhoA pull down assay (RhoA-GTP); settings: 24 hours, GBM12 and GBM6
Experimental: The amount of GTP-bound RhoA and Cdc42 were measured using RhoA and Cdc42 pull down assay kit (Cell Signaling) according to the protocol provided by the manufacturer. Briefly, cell lysates were incubated with either glutathione S-transferase (GST)-Rhotekin-RBD or GST-PAK-PBD beads 4° C. for 1 hour to pull down GTP-bound RhoA or Cdc42. Beads were washed four times in washing buffer and re-suspended in lysis buffer. RhoA-GTP and Cdc42-GTP were detected by Western blot using RhoA and Cdc42 antibodies.

**Q.** `C[C@@H]1CCN(C(=O)CC#N)C[C@@H]1N(C)c1ncnc2[nH]ccc12` [tofacitinib] was tested. Which “responsiveness in invasion assay” value ([1]; GBM39 with HBEGF silenced vs. GBM39 control, tofacitinib 1 μM) did it give?
**A.** The value was “more responsive”.

**Q.** And the cell invasion ([1]; GBM44 with HB-EGF siRNA knockdown, tofacitinib 1 μM)?
**A.** Its cell invasion is “inhibits invasion”.

**Q.** And the cell invasion ([1]; tofacitinib 1 μM, 24 hours, multiple PDX lines)?
**A.** The cell invasion was “inhibited invasiveness”.

**Q.** And the “upregulation of BIN3” value ([2]; GBM39 and GBM44 (high endogenous EGFR ligand, high BIN3), tofacitinib 1 μM, 48 hours)?
**A.** The value was “do not respond”.

**Q.** What about the “upregulation of BIN3” value ([2]; GBM39 with HBEGF silenced, tofacitinib, 48 hours) of the same compound?
**A.** Its value is “could now upregulate BIN3”.

**Q.** And the “BIN3 mRNA level” value ([2]; tofacitinib 1 μM, 24 hours, PDXs)?
**A.** Its value is “upregulates BIN3 at the mRNA level”.

**Q.** What about the BIN3 protein level ([2]; tofacitinib 1 μM, 48 hours, multiple PDX lines) of the same compound?
**A.** Its BIN3 protein level is “strongly upregulated”.

**Q.** What about the BIN3 level ([2]; tofacitinib in cells treated with a saturating concentration of EGF, 48 hours, GBM12 and GBM6) of the same compound?
**A.** Its BIN3 level is “did not induce a further increase”.

**Q.** With “EGF: Recombinant human EGF (AF-100) from Peprotech; EGFR ligand” as the compound, how does the cell invasion ([1]; EGF 50 ng/ml, 24 hours, multiple Mayo PDX explant cultures expressing EGFRwt or EGFRvIII plus EGFRwt) read?
**A.** Its cell invasion is “suppressed invasion”.

**Q.** What about the cell invasion ([1]; EGFR overexpressing PDX cells exposed to EGF) of the same compound?
**A.** The cell invasion was “invasion is suppressed”.

**Q.** And the BIN3 protein level ([2]; EGF 50 ng/ml, 48 hours, Mayo PDX lines, Western blot)?
**A.** The BIN3 protein level was “robust increase”.

**Q.** And the “BIN3 mRNA level” value ([2]; EGF-treated PDXs, real-time PCR)?
**A.** Its value is “regulated by EGF at the mRNA level”.

**Q.** What about the RhoA activity ([3]; EGF 50 ng/ml) of the same compound?
**A.** Its RhoA activity is “decreases the activity”.

**Q.** With HGF: the ligand for Met as the compound, how does the cell invasion ([1]; HGF 20 ng/ml, 24 hours, GBM12 and GBM6) read?
**A.** The cell invasion was “increased invasiveness”.

**Q.** And the BIN3 levels ([2]; HGF 20 ng/ml, 24 hours)?
**A.** Its BIN3 levels is “does not affect BIN3 levels”.

**Q.** And the RhoA activity ([3]; HGF)?
**A.** Its RhoA activity is “increase in RhoA activity”.
